From the supplement of paper PMC11061612

Assays:
[1] = test system: KP-4 (Pancreatic Carcinoma); assay: Bliss excess, mean over the matrix (fraction); higher = more synergy
Summary of the method: (§1)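 Bliss excess equals the observed combination effect minus the expected value EA + EB − EA·EB, where EA and EB are the effects of each agent alone. Combination Emax is the second-highest inhibition within the matrix. Inhibition was scaled from CellTiter-Glo 2.0 luminescence, with 0 set by vehicle wells and 1 by blank wells, after 72 hours of two-drug dosing of cells plated in 1536-well plates.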

[2] = test system: BxPC-3 (Pancreatic Carcinoma); assay: combination Emax (second highest fraction inhibited in the dose matrix, 72 h); higher = more inhibition; extreme values may be limits of the assay
Summary of the method: as §1

[3] = test system: COR-L88 (Small Cell Lung Carcinoma); assay: as above
Summary of the method: as §1

KALS-1 (Glioblastoma) = assay: as above
Summary of the method: as §1

[4] = test system: KP-4 (Pancreatic Carcinoma); assay: as above
Summary of the method: as §1

[5] = test system: LS-1034 (Colorectal Carcinoma); assay: as above
Summary of the method: as §1

[6] = test system: MDA-MB-415 (Breast Carcinoma); assay: as above
Summary of the method: as §1

[7] = test system: MS-1 (Small Cell Lung Carcinoma); assay: as above
Summary of the method: as §1

[8] = test system: NAMALWA (Burkitt's Lymphoma); assay: as above
Summary of the method: as §1

[9] = test system: SCC-4 (Oral Cavity Carcinoma); assay: as above
Summary of the method: as §1

SK-N-SH (Neuroblastoma) = assay: as above
Summary of the method: as §1

[10] = test system: SKG-IIIa (Cervical Carcinoma); assay: as above
Summary of the method: as §1

[11] = test system: SNU-423 (Hepatocellular Carcinoma); assay: as above
Summary of the method: as §1

[12] = test system: T84 (Colorectal Carcinoma); assay: as above
Summary of the method: as §1

Compound: O=C(c1cc(Cc2n[nH]c(=O)c3ccccc23)ccc1F)N1CCN(C(=O)C2CC2)CC1 [Olaparib] + COc1nnc2ccc(N3CCC(c4ccc(OCCN5CCN(C)C(=O)[C@H]5C)cc4)CC3)nn12 [AZD5153] (first compound max 10 µM, 7x7, partner max 1 µM)
- Bliss excess [1]: -0.0266
- combination Emax [2]: 0.403
- combination Emax [3]: 0.214
- combination Emax (KALS-1 (Glioblastoma)): 0.548
- combination Emax [4]: 0.532
- combination Emax [5]: 0.453
- combination Emax [6]: 0.362
- combination Emax [7]: 0.757
- combination Emax [8]: 0.751
- combination Emax [9]: 0.322
- combination Emax (SK-N-SH (Neuroblastoma)): 0.428
- combination Emax [10]: 0.385
- combination Emax [11]: 0.302
- combination Emax [12]: 0.0881

Compound: CC1(C)CCC(CN2CCN(c3ccc(C(=O)NS(=O)(=O)c4ccc(NCC5CCOCC5)c([N+](=O)[O-])c4)c(Oc4cnc5[nH]ccc5c4)c3)CC2)=C(c2ccc(Cl)cc2)C1 [Venetoclax] + CS(=O)(=O)CCNCc1ccc(-c2ccc3ncnc(Nc4ccc(OCc5cccc(F)c5)c(Cl)c4)c3c2)o1 [Lapatinib] (first compound max 1 µM, 7x7, partner max 10 µM)
- Bliss excess [1]: -0.0168
- combination Emax [2]: 0.244
- combination Emax [3]: 0.534
- combination Emax (KALS-1 (Glioblastoma)): 0.223
- combination Emax [4]: 0.0862
- combination Emax [5]: 0.322
- combination Emax [6]: 0.242
- combination Emax [7]: 0.473
- combination Emax [8]: 0.25
- combination Emax [9]: 0.368
- combination Emax (SK-N-SH (Neuroblastoma)): 0.509
- combination Emax [10]: 0.201
- combination Emax [11]: 0.246
- combination Emax [12]: 0.25

Compound: Cc1c2c(nn1C)CSCc1cc(n(C)n1)CSc1cc(c3ccccc3c1)OCCCc1c(C(=O)O)n(C)c3c-2c(Cl)ccc13 [AZD5991] + Nc1ccn([C@@H]2O[C@H](CO)[C@@H](O)C2(F)F)c(=O)n1 [Gemcitabine] (first compound max 1 µM, 7x7, partner max 0.3 µM)
- combination Emax [2]: 0.47
- combination Emax [3]: 0.485
- combination Emax (KALS-1 (Glioblastoma)): 0.542
- combination Emax [5]: 0.614
- combination Emax [6]: 0.526
- combination Emax [7]: 0.722
- combination Emax [8]: 1
- combination Emax [9]: 0.53
- combination Emax (SK-N-SH (Neuroblastoma)): 0.757
- combination Emax [10]: 0.332
- combination Emax [11]: 0.43
- combination Emax [12]: 0.521

Compound: C[C@@H](Oc1cc(-c2cnn(C3CCNCC3)c2)cnc1N)c1c(Cl)ccc(F)c1Cl [Crizotinib] + Cn1cnc2c(F)c(Nc3ccc(Br)cc3Cl)c(C(=O)NOCCO)cc21 [Selumetinib] (first compound max 10 µM, 7x7, partner max 10 µM)
- Bliss excess [1]: 0.0259
- combination Emax [2]: 0.439
- combination Emax [3]: 0.409
- combination Emax (KALS-1 (Glioblastoma)): 0.538
- combination Emax [4]: 0.838
- combination Emax [5]: 0.79
- combination Emax [6]: 0.275
- combination Emax [7]: 0.791
- combination Emax [8]: 0.937
- combination Emax [9]: 0.496
- combination Emax (SK-N-SH (Neuroblastoma)): 0.854
- combination Emax [10]: 0.254
- combination Emax [11]: 0.823
- combination Emax [12]: 0.576

Compound: N#Cc1cnc(Nc2cc(NC[C@H]3CNCCO3)c(C(F)(F)F)cn2)cn1 [SRA737] + C=CCn1c(=O)c2cnc(Nc3ccc(N4CCN(C)CC4)cc3)nc2n1-c1cccc(C(C)(C)O)n1 [AZD1775] (first compound max 10 µM, partner max 1 µM)
- Bliss excess [1]: 0.0595
- combination Emax [2]: 0.613
- combination Emax [3]: 0.685
- combination Emax (KALS-1 (Glioblastoma)): 0.927
- combination Emax [4]: 0.597
- combination Emax [5]: 0.809
- combination Emax [6]: 0.318
- combination Emax [7]: 0.926
- combination Emax [8]: 0.988
- combination Emax [9]: 0.64
- combination Emax (SK-N-SH (Neuroblastoma)): 0.804
- combination Emax [10]: 0.465
- combination Emax [11]: 0.648
- combination Emax [12]: 0.853

Compound: N#Cc1cnc(Nc2cc(NC[C@H]3CNCCO3)c(C(F)(F)F)cn2)cn1 [SRA737] + O=c1[nH]cc(F)c(=O)[nH]1 [5-Fluorouracil] (first compound max 10 µM, 7x7, partner max 20 µM)
- Bliss excess [1]: 0.0334
- combination Emax [2]: 0.555
- combination Emax [3]: 0.435
- combination Emax (KALS-1 (Glioblastoma)): 0.792
- combination Emax [4]: 0.376
- combination Emax [5]: 0.77
- combination Emax [6]: 0.381
- combination Emax [7]: 0.584
- combination Emax [8]: 0.967
- combination Emax [9]: 0.628
- combination Emax (SK-N-SH (Neuroblastoma)): 0.57
- combination Emax [10]: 0.34
- combination Emax [11]: 0.477
- combination Emax [12]: 0.785

Compound: C[C@@H](Oc1cc(-c2cnn(C3CCNCC3)c2)cnc1N)c1c(Cl)ccc(F)c1Cl [Crizotinib] + CC1=C(C(=CC=C1)Cl)NC(=O)C2=CN=C(S2)NC3=CC(=NC(=N3)C)N4CCN(CC4)CCO [Dasatinib] (first compound max 10 µM, 7x7, partner max 2 µM)
- Bliss excess [1]: 0.0493
- combination Emax [2]: 0.938
- combination Emax [3]: 0.435
- combination Emax (KALS-1 (Glioblastoma)): 0.925
- combination Emax [4]: 0.848
- combination Emax [5]: 0.835
- combination Emax [6]: 0.323
- combination Emax [7]: 0.686
- combination Emax [8]: 0.934
- combination Emax [9]: 0.913
- combination Emax (SK-N-SH (Neuroblastoma)): 0.859
- combination Emax [10]: 0.734
- combination Emax [11]: 0.934
- combination Emax [12]: 0.58

Compound: N#Cc1cnc(Nc2cc(NC[C@H]3CNCCO3)c(C(F)(F)F)cn2)cn1 [SRA737] + CCc1c2c(nc3ccc(O)cc13)-c1cc3c(c(=O)n1C2)COC(=O)[C@]3(O)CC [SN-38] (first compound max 10 µM, 7x7, partner max 0.3 µM)
- Bliss excess [1]: -0.031
- combination Emax [2]: 0.671
- combination Emax [3]: 0.645
- combination Emax (KALS-1 (Glioblastoma)): 0.928
- combination Emax [5]: 0.873
- combination Emax [6]: 0.431
- combination Emax [7]: 0.799
- combination Emax [8]: 0.994
- combination Emax [9]: 0.893
- combination Emax (SK-N-SH (Neuroblastoma)): 0.892
- combination Emax [10]: 0.592
- combination Emax [11]: 0.648
- combination Emax [12]: 0.815
